Common to all, as to format: cell-based
In one experiment the target is T1, human MC4R (Homo sapiens, UniProt P32245).
T1 construct: host or cells: HEK-293 cells stably expressing the GScAMP22F split-luciferase cAMP sensor and hMC4R, G418 selection
Nature of the experiment: split-luciferase cAMP sensor assay, agonist mode (measurement window 1), hMC4R. The note with it: agonist mode; for Emax: % maximal activation, read-out: MC4R cAMP % max activation; for EC50: HEK-293 cells stably expressing hMC4R, read-out: MC4R cAMP EC50. Put shortly: (§1)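 EC50 values come from a four-parameter variable-slope fit of luminescence in measurement window 1, capturing direct peptide effects on receptor-expressing cells with a cAMP22f luciferase sensor. Cells were preloaded with 4% D-luciferin, serum-free medium; 20 μM forskolin normalized for cell number and transducer efficiency.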

A further experiment addresses T2, human MC3R (Homo sapiens, UniProt P41968).
T2 construct: expressed in transfected cells; host or cells: HEK-293 cells stably expressing the GScAMP22F split-luciferase cAMP sensor (parent reporter line from Promega); MC3R clone generated in-house, G418 selection
The experiment in a line: split-luciferase cAMP sensor assay, agonist mode (measurement window 1), hMC3R. Conditions: for Emax: % maximal activation, read-out: MC3R cAMP % max activation; for Emax / EC50: agonist mode; for EC50: HEK-293 cells stably expressing hMC3R, read-out: MC3R cAMP EC50; for MC4R selectivity vs MC3R: MC4R versus MC3R. Put shortly:
as §1

The target in another experiment is T3, human MC1R (Homo sapiens, UniProt Q01726).
T3 construct: expressed in transfected cells; host or cells: HEK-293 cells stably expressing hMC1R and the GScAMP22F cAMP sensor
T3 sequence (Q01726 whole entry): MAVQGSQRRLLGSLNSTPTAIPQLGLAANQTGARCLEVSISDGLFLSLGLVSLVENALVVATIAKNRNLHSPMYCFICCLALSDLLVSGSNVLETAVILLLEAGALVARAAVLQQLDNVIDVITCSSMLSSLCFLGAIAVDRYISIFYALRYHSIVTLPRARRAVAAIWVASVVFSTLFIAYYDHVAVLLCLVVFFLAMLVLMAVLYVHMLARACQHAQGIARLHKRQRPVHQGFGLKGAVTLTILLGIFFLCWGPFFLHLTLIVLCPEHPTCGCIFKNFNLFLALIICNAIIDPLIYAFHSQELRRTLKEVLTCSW
Nature of the experiment: split-luciferase cAMP sensor assay, agonist mode, hMC1R. Conditions: MC4R versus MC1R. How it is done:
FIG. 4A-B. (A) Pharmacological properties of exemplary MC4R agonist peptides, including those with improved efficacy in the MC4R+/− mouse (CTX-1211, CTX-1227, and CTX-1228). Concentration-response agonist curves for peptides indicated at the human MC4R (red), human MC3R (blue), human MC5R (green), and human MC1R (black) were determined by a split-luciferase cAMP sensor dynamic assay in HEK-293 cells stably expressing the hMC1R, hMC3R, hMC4R, or hMC5R and the GScAMP22F cAMP sensor. Each data point represents the mean±SEM of two experiments with three replicates each per experiment. Data is normalized to the ECmax of α-MSH. (B) Same as above, for peptides representing reduced activity at the hMC1R. Inset tables indicate EC50 values for the ligand indicated for each receptor.
The assay for the determination of the cAMP response in live cells was described previously. (Yu et al., 2020, Science 368, 428-433; incorporated by reference in its entirety). Cells were seeded at a density of 20,000 cells per well using 384-well poly-D lysine-coated, clear bottom, and black-wall assay plates (Corning Inc. Corning, NJ). Cells were allowed to attach to the plates for 18 to 24 h after which growth media was removed and 20 μl of 4% D-luciferin (Promega) in CO2 independent, serum-free medium (Thermo Fisher Scientific) was added to each well. The luciferase substrate was allowed to permeate the cells for 120 min at 37° C. Intracellular cAMP levels were measured using an FDSS 7000EX Functional Drug Screening System (Hamamatsu Photonics, Hamamatsu, Japan) in the Center for Chemical Genomics at the Life Sciences Institute. This instrument allowed the in-line addition of test-peptides and receptor agonists while simultaneously acquiring the luminescence signal from live cells. Assay read steps were set as follows: baseline acquisition of 2 min, the addition of 10 μl of varying 3× concentrations of test-peptides or vehicle followed by 11 min measurement (measurement window 1), and 10 μl addition of 4× concentration of the endogenous melanocortin agonist α-MSH (Bachem, Bubendorf, Switzerland) followed by an additional 11 min response measurement (measurement window 2). The resulting final concentration of α-MSH was close to the respective receptor EC90 dose for each receptor. Intraplate concentration response curves for α-MSH and SHU-9119 (Phoenix Pharmaceuticals, Burlingame CA) were included as reference controls. A submaximal forskolin (20 μM) concentration was also included to serve as a normalization reference to account for cell number variations and differences in assay transducer efficiency between cell lines.
With this set up it was possible to evaluate the direct effect of the test-peptides on the MC3R and MC4R cell lines during measurement window 1, while the antagonist profile in the presence of EC90 α-MSH was determined on measurement window 2. For data analysis baseline luminescence (i.e. the maximum luminescence signal from the initial 0 to 2 min window) was subtracted from the maximum luminescence obtained during measurement window 1 (2 to 13 min) and measurement window 2 (13 to 24 min) to yield the test-peptide elicited responses. EC50 or IC50 potency values were determined by non-linear regression by fitting the data to a sigmoid four-parameter variable slope model using the GraphPad Prism version 8.4 software package (San Diego CA).

These results are taken from patent US20240391954A1, “MC4R AGONIST PEPTIDES” (The Regents of the University of Michigan, priority 2021, published 2024).

In general, EC50 refers to the concentration that produces a half-maximal response.

Positions of bridges follow the written chain, without caps; N, C: chain ends. Non-standard residues stand in square brackets, D forms with d. Residues, ends and D or L forms follow the SMILES beside them. Cit = NC(=O)NCCC[C@H](N)C(=O)O; NMeA = CN[C@@H](C)C(=O)O; Nle = CCCC[C@H](N)C(=O)O; Aib = CC(C)(N)C(=O)O

T1 sequence (P32245 whole entry): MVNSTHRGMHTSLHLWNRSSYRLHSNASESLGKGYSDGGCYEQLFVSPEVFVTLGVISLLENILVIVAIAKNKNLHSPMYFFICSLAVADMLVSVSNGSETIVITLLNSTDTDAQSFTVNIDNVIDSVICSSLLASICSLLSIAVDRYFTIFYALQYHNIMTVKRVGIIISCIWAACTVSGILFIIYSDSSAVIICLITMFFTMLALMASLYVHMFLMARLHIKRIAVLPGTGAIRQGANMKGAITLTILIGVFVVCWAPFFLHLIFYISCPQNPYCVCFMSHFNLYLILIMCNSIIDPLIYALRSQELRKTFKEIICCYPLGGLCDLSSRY
T2 sequence (P41968 whole entry): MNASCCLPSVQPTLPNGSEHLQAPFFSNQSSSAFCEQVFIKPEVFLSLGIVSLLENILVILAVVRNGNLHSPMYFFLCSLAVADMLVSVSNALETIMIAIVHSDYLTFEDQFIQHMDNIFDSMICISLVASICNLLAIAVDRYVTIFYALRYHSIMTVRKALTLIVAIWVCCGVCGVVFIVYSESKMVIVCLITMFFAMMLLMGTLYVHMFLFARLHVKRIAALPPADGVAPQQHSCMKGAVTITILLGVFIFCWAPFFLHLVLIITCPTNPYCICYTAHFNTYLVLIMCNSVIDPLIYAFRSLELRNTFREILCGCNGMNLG

On to `N=C(N)NCCC[C@@H]1NC(=O)CNC(=O)CSC[C@@H](C(N)=O)NC(=O)[C@H](Cc2c[nH]c3ccccc23)NC(=O)[C@H](CCCNC(=N)N)NC(=O)[C@@H](Cc2ccccc2)NC1=O` [CTX-1645, Thioether-cyclo(Gly-Arg-D-Phe-Arg-Trp-Cys)] ({CH2CO}-GR[dF]RWC-NH2; thioether N-6), for which, on human MC4R, the Emax was 110% and the EC50 came out at 1.6 nM. Besides, at human MC3R, the Emax worked out at 97%, the EC50 worked out at 68 nM and the “MC4R selectivity vs MC3R” value came to 42. On human MC1R, the “MC4R selectivity vs MC1R” value came to 9.04.

Regarding `CC(=O)N[C@@H](CCCNC(=N)N)C(=O)N[C@H]1CSSC[C@@H](C(N)=O)NC(=O)[C@@H](Cc2c[nH]c3ccccc23)NC(=O)[C@H](CCCNC(=N)N)NC(=O)[C@@H](Cc2ccccc2)NC(=O)[C@H](CCCNC(=N)N)NC(=O)[C@H](C)N(C)C1=O` [CTX-1269, Arg-cyclo(Cys-NMe-Ala-Arg-D-Phe-Arg-D-Trp-Cys)] (Ac-RC[NMeA]R[dF]R[dW]C-NH2; disulfide 2-8 (inferred)), on human MC4R, the Emax stood at 92% and the EC50 came to 13 nM. Also, on human MC3R, the Emax is 39% and the “MC4R selectivity vs MC3R” value is listed as 9.31. Moreover, at human MC1R, the “MC4R selectivity vs MC1R” value was 2.56.

As for `CC(=O)N[C@@H](CCCNC(=N)N)C(=O)N[C@H]1CSSC[C@@H](C(N)=O)NC(=O)[C@H](Cc2c[nH]c3ccccc23)NC(=O)[C@H](CCCNC(=N)N)NC(=O)[C@@H](Cc2ccccc2)NC(=O)[C@H](CCCNC(=N)N)NC(=O)C(C)(C)NC1=O` [CTX-1292, Arg-cyclo(Cys-Aib-Arg-D-Phe-Arg-Trp-Cys)] (Ac-RC[Aib]R[dF]RWC-NH2; disulfide 2-8 (inferred)), the Emax at human MC4R is 90%. In addition, on human MC3R, the Emax was 76% and the “MC4R selectivity vs MC3R” value was 21. Besides, the “MC4R selectivity vs MC1R” value at human MC1R is recorded as 2.46.

For the compound `CCCC[C@H](NC(=O)[C@H](CCCNC(=N)N)NC(C)=O)C(=O)N[C@H]1CSSC[C@@H](C(N)=O)NC(=O)[C@@H](Cc2c[nH]c3ccccc23)NC(=O)[C@H](CCCNC(=N)N)NC(=O)[C@@H](Cc2ccccc2)NC(=O)[C@H](CCCNC(=N)N)NC1=O` [CTX-1616, Arg-Nle-cyclo(Cys-Arg-D-Phe-Arg-D-Trp-Cys)] (Ac-R[Nle]CR[dF]R[dW]C-NH2; disulfide 3-8), at human MC4R, the Emax was found to be 93% and the EC50 was found to be 16 nM. Also, at human MC3R, the Emax was determined as 78% and the “MC4R selectivity vs MC3R” value came to 3.78. The “MC4R selectivity vs MC1R” value on human MC1R worked out at 1.51.

With `CC(=O)N[C@@H](CCCNC(=N)N)C(=O)N[C@H]1CSSC[C@@H](C(N)=O)NC(=O)[C@H](Cc2c[nH]c3ccccc23)NC(=O)[C@H](CCCNC(=N)N)NC(=O)[C@@H](Cc2ccccc2)NC(=O)[C@H](Cc2c[nH]cn2)NC(=O)C(C)(C)NC1=O` [CTX-1291, Arg-cyclo(Cys-Aib-His-D-Phe-Arg-Trp-Cys)], at human MC4R, the Emax came out at 98%. Besides, at human MC3R, the Emax turned out to be 91% and the “MC4R selectivity vs MC3R” value was 7.99. At human MC1R, the “MC4R selectivity vs MC1R” value is 1.31.

Take `CCCC[C@H](NC(=O)[C@H](CCCNC(=N)N)NC(C)=O)C(=O)N[C@H]1CSSC[C@@H](C(N)=O)NC(=O)[C@@H](Cc2c[nH]c3ccccc23)NC(=O)[C@H](CCCNC(=N)N)NC(=O)[C@@H](Cc2ccccc2)NC(=O)[C@H](CCCNC(N)=O)NC1=O` [CTX-1608, Arg-Nle-cyclo(Cys-Cit-D-Phe-Arg-D-Trp-Cys)] (Ac-R[Nle]C[Cit][dF]R[dW]C-NH2; disulfide 3-8 (inferred)): on human MC4R, the Emax is 79% and the EC50 came out at 288 nM. Besides, on human MC3R, the Emax amounted to 19% and the “MC4R selectivity vs MC3R” value is 0.95. In addition, the “MC4R selectivity vs MC1R” value on human MC1R was 2.07.

As for `C[C@H]1NC(=O)CSC[C@@H](C(N)=O)NC(=O)[C@H](Cc2ccccc2)NC(=O)[C@H](CCCNC(=N)N)NC(=O)[C@@H](Cc2ccccc2)NC(=O)[C@H](CCCNC(=N)N)NC1=O` [CTX-1657, Thioether-cyclo(D-Ala-Arg-D-Phe-Arg-Phe-Cys)] ({CH2CO}-[dA]R[dF]RFC-NH2; thioether N-6), the Emax at human MC4R is 78%. On human MC3R, the Emax was 30% and the “MC4R selectivity vs MC3R” value turned out to be 3.56. Moreover, at human MC1R, the “MC4R selectivity vs MC1R” value was 1.42.

On to `COc1ccc(C[C@H]2NC(=O)[C@H](CCCNC(=N)N)NC(=O)C(C)(C)NC(=O)[C@@H](NC(=O)[C@H](CCCNC(=N)N)NC(C)=O)CSSC[C@@H](C(N)=O)NC(=O)[C@@H](Cc3c[nH]c4ccccc34)NC(=O)[C@H](CCCNC(=N)N)NC2=O)cc1` [CTX-1297, Arg-cyclo(Cys-Aib-Arg-D-Tyr(4-OMe)-Arg-D-Trp-Cys)] (Ac-RC[Aib]R[dY](Me)R[dW]C-NH2; disulfide 2-8 (inferred)), for which, on human MC4R, the Emax turned out to be 97% and the EC50 amounted to 3.3 nM. For the same compound, on human MC3R, the concentration giving a half-maximal response (EC50) was more than 10000 nM and the “MC4R selectivity vs MC3R” value is on record as >3,000. Besides, the “MC4R selectivity vs MC1R” value on human MC1R is 0.52.

With `CC(=O)N[C@@H](CCCNC(=N)N)C(=O)N[C@H]1CSSC[C@@H](C(N)=O)NC(=O)[C@H](Cc2c[nH]c3ccccc23)NC(=O)[C@H](CCCNC(N)=O)NC(=O)[C@@H](Cc2ccccc2)NC(=O)[C@H](CCCNC(=N)N)NC(=O)C(C)(C)NC1=O` [CTX-1270, Arg-cyclo(Cys-Aib-Arg-D-Phe-Cit-Trp-Cys)] (Ac-RC[Aib]R[dF][Cit]WC-NH2; disulfide 2-8), at human MC4R, the Emax is 98%. Also, at human MC3R, the Emax was determined as 14%, the EC50 was found to be 52 nM and the “MC4R selectivity vs MC3R” value came out at 1.88. For the same compound, at human MC1R, the “MC4R selectivity vs MC1R” value was found to be 2.49.

Take `CC(=O)N[C@@H](CCCNC(=N)N)C(=O)N[C@H]1CSSC[C@@H](C(N)=O)NC(=O)[C@@H](Cc2c[nH]c3ccccc23)NC(=O)[C@H](CCCNC(N)=O)NC(=O)[C@@H](Cc2ccccc2)NC(=O)[C@H](CCCNC(=N)N)NC(=O)[C@@H](C)NC1=O` [CTX-1281, Arg-cyclo(Cys-D-Ala-Arg-D-Phe-Cit-D-Trp-Cys)] (Ac-RC[dA]R[dF][Cit][dW]C-NH2; disulfide 2-8 (inferred)): the Emax on human MC4R was 92%. On human MC3R, the Emax amounted to 44%, the EC50 was determined as 28 nM and the “MC4R selectivity vs MC3R” value was 0.29. Also, the “MC4R selectivity vs MC1R” value at human MC1R came to 0.44.

For the compound `CC(=O)N[C@H]1CSSC[C@@H](C(N)=O)NC(=O)[C@H](Cc2c[nH]c3ccccc23)NC(=O)[C@H](CCCNC(=N)N)NC(=O)[C@@H](Cc2ccccc2)NC(=O)[C@H](CCCNC(N)=O)NC(=O)[C@@H](C)NC1=O` [CTX-1628, cyclo(Cys-D-Ala-Cit-D-Phe-Arg-Trp-Cys)] (Ac-C[dA][Cit][dF]RWC-NH2; disulfide 1-7 (inferred)), on human MC4R, the Emax came out at 99% and the EC50 was 14 nM. Besides, on human MC3R, the Emax worked out at 45% and the “MC4R selectivity vs MC3R” value amounted to 6.37. Also, the “MC4R selectivity vs MC1R” value on human MC1R stood at 191.
